Source: patent publication US9308268B2, “Solubilized benzoyl peroxyde acne” (TRANSDERMAL CORP, priority 2005, dated 2016)

Assays:
[1] = Solubility of benzoyl peroxide; assay type: physicochemical; conditions: by weight of the solubilized benzoyl peroxide topical formulation
Procedure: Benzoyl peroxide is a crystalline solid with a melting point of 103° C. to 106° C., and is insoluble in water.
Benzoyl peroxide is soluble in organic solvents, but most organic solvents are toxic and therefore not suitable for pharmaceutical/cosmetic use. Polar organic solvents such as acetone and ethanol are less toxic, but the flammability of these solvents as well as the ability of these solvents to irritate and strip the skin of its protective mantle limit their use in pharmaceutical or cosmetic compositions.
In contrast to prior art formulations of benzoyl peroxide, the benzoyl peroxide will actively go into solution at levels as high as 10% by weigh of the solubilized benzyl peroxide topical formulation. Furthermore, the solubilized benzoyl peroxide topical formulation is translucent and has increased efficacy.

[2] = cited from earlier work

**Q.** Which “level at which benzoyl peroxide goes into solution” value [1] does the source give for O=C(OOC(=O)c1ccccc1)c1ccccc1 [Benzoyl peroxide] here?
**A.** Its value is ≤ 10%.

**Q.** And the “solubility in organic solvents” value ([2]; organic solvents)?
**A.** The value was “soluble”.

**Q.** And the solubility in water ([2]; water)?
**A.** The solubility in water was “insoluble”.
